pKi: −log10 of the molar value. Read-outs that look alike come from different tables or passages of the source.
Legend:
[1] = target: T1, human H3 receptors (Homo sapiens (Human), UniProt Q9Y5N1); experiment: Potency assessment: blockade of (R)-alpha-methylhistamine-mediated cAMP production (LANCE Ultra cAMP kit); format: cell-based; conditions: CHO cells expressing human H3 receptors
Experimental: The potency of compounds of the invention as H3 receptor antagonists can be assessed by measuring the blockade of (R)-alpha-methylhistamine-mediated cAMP production utilizing a LANCE Ultra cAMP kit (PE #TRF0263) in CHO cells expressing human H3 receptors (GenBank: BC096840; Strausberg R L et al, Proc. Natl. Acad. Sci. U.S.A. 99(26), 16899-16903; 2002).
2. Preparation of assay plate: Different concentrations of the compounds of the invention (0.01-1000 nM), H3 positive controls and cAMP calibration standards; […] Forskolin (CALBIOCHEM #344270); 5 μM (R)-alpha-methylhistamine (H3 receptor agonist); 1% DMSO (SIGMA #D2650); total volume: 95 nl.
3. Preparation of the cell solution: Collect cells with stimulation buffer, final density: 100,000 cells/ml.
4. Reaction: (a) transfer 10 μl of cell solution to assay plate, (b) centrifuge at 600 rpm for 3 min and incubate 50 min at room temperature, (c) add 5 μL 4× Eu-cAMP tracer solution (60 μl Eu-cAMP tracer stock solution+2.94 ml cAMP detection buffer) and 5 μL 4× ULight™-anti-cAMP solution (20 μl […]+2.98 ml cAMP detection buffer) to assay plate.
5. Reading plate on EnVision: flash energy: 100%; excitation filter: 111 UV2 320; emission filter: 203 (Eu 615) and 205 (APC 665); number of laser flashes: 20; window: 100 μs; laser mirror module: 445 or 446; laser cycle: 16,600 μs.
6. Data analysis by GraphPad Prism: log (compound concentration) vs. response; variable slope.

[2] = target: T1, human H3 receptors; experiment: Affinity assessment: displacement of [3H]-N-α-Methylhistamine binding to membranes; conditions: membranes containing human H3 receptors, radioligand [3H]-N-α-Methylhistamine
Experimental: The affinity of compounds of the invention to the H3 receptor can be assessed by measuring displacement of binding of the radioligand [3H]-N-α-Methylhistamine (PerkinElmer, #NET1027250UC) to membranes containing human H3 receptors (PerkinElmer, #ES-392-M400UA; GenBank: NM_007232.2; Hill S J et al, International Union of Pharmacology XIII. Classification of histamine receptors, Pharmacol Rev, 49(3), 253-278, 1997).
2. Compound serial dilution: Dilution was performed by BioTek Precision on compound dilution plate. Compound concentrations start at 5 or 10 μM, 10 point dose titrations with 3- or 5-fold serial dilutions.
3. Preparation of 2× membrane solution (25 ml): 1.25 ml human Histamine H3 receptor stock, 23.75 ml assay buffer.
4. Preparation of 2× solution of [3H]-N-α-methylhistamine (25 ml): 4.27 μl [3H]-N-α-methylhistamine stock, 25 ml assay buffer.
5. Assemble binding reaction: (a) transfer 1 μl of compound solution, 1 μl 100% DMSO and 1 μl 1 M (R)(−)-α-Methylhistamine (Sigma, #H128) to the reaction plate at room temperature, (b) transfer 50 μl of 2× protein solution to reaction plate, (c) transfer 49 μl of 2× radioligand solution to reaction plate (Corning® 96 well EIA/RIA plate; Sigma, #CLS3797).
6. Cover the reaction plate with a TopSeal™-A film (Perkin Elmer, #6005185) and incubate at 28° C. for 120 min. Equilibrate Zeba Spin Desalting Plates (Thermo Scientific, #89808) to room temperature for 120 min.
7. Remove the sealing material from the bottom of the filtration plate. Place the plate on a wash plate. Centrifuge at 1000 g for 2 min to remove the storage buffer at room temperature.
8. Transfer 70 μl binding reaction from reaction plate into filtration plates. Place the filtration plates on top of collection plate. Centrifuge the plate assembly at 1000 g for 2 min to collect the protein with bound radioligand. Add 200 μl of Microscint-40 (PerkinElmer, #6013641-1L) to each well of the collection plate. Cover the plates with TopSeal™-A film.
9. Read the plates on Wallac Microbeta Trilux 2450, Instrument settings: counting mode: CPM, counting time: 2 min.
10. Data analysis: GraphPad Prism: log (compound concentration) vs. response; variable slope. The Ki is calculated based on Chang and Prusoff: Ki=IC50/{1+([radioligand]/Kd)}

[3] = Solubility of solid forms in aqueous media; format: physicochemical

T1 sequence (Q9Y5N1 whole entry): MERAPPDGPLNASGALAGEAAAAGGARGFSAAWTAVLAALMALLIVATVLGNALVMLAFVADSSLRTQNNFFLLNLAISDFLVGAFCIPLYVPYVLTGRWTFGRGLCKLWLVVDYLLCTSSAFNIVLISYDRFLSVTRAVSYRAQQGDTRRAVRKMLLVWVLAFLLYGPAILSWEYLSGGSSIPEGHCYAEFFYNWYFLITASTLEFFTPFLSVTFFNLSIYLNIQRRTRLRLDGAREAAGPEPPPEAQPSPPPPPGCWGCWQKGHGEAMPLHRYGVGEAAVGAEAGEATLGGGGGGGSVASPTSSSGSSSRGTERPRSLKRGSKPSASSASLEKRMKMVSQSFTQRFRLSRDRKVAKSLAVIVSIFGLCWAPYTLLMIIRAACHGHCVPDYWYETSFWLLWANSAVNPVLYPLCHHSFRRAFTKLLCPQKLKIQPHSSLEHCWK

pKi [1]	pKi [2]	solubility in aqueous media ([3]; across a pH range from about 1-8)	solubility in aqueous media [3]	SMILES
8.64	7.60	–	–	O=C(OC1CCN(c2ccc(=O)[nH]n2)CC1)N1CCN(C2CC2)CC1 [Example 1.4, 1-(6-oxo-1,6-dihydropyridazin-3-yl)piperidin-4-yl 4-cyclopropylpiperazine-1-carboxylate]
8.80	8.92	–	–	CC(C)N1CCN(C(=O)OC2CCN(c3ccc(=O)[nH]c3)CC2)CC1 [Example 3.1, 1-(6-oxo-1,6-dihydropyridin-3-yl)piperidin-4-yl 4-isopropylpiperazine-1-carboxylate]
9.05	7.92	–	–	CC(C)N1CCN(C(=O)OC2CCN(c3cc[nH]c(=O)c3)CC2)CC1 [Example 2.3, 1-(2-oxo-1,2-dihydropyridin-4-yl)piperidin-4-yl 4-isopropylpiperazine-1-carboxylate]
8.96	7.60	–	–	Cn1nc(N2CCC(OC(=O)N3CCN(C4CCC4)CC3)CC2)ccc1=O [Example 1.5, 1-(1-methyl-6-oxo-1,6-dihydropyridazin-3-yl)piperidin-4-yl 4-cyclobutylpiperazine-1-carboxylate]
9.30	7.60	–	–	O=C(OC1CCN(c2cc[nH]c(=O)c2)CC1)N1CCN(C2CCC2)CC1 [Example 2.2, 1-(2-oxo-1,2-dihydropyridin-4-yl)piperidin-4-yl 4-cyclobutylpiperazine-1-carboxylate]
8.51	7.70	–	–	CC(C)N1CCN(C(=O)OC2CCN(c3ccn(C)c(=O)c3)CC2)CC1 [Example 2.1, 1-(1-methyl-2-oxo-1,2-dihydropyridin-4-yl)piperidin-4-yl 4-isopropylpiperazine-1-carboxylate]
–	–	good solubility	–	Cn1nc(N2CCC(OC(=O)N3CCN(C4CCC4)CC3)CC2)ccc1=O [Form A of the free from, 1-(1-methyl-6-oxo-1,6-dihydropyridazin-3-yl)piperidin-4-yl 4-cyclobutylpiperazine-1-carboxylate]
8.54	7.36	–	–	CCn1nc(N2CCC(OC(=O)N3CCN(C(C)C)CC3)CC2)ccc1=O [Example 1.6, 1-(1-ethyl-6-oxo-1,6-dihydropyridazin-3-yl)piperidin-4-yl 4-isopropylpiperazine-1-carboxylate]
–	–	–	good solubility	Cn1nc(N2CCC(OC(=O)N3CCN(C4CCC4)CC3)CC2)ccc1=O [Form B of the free from, 1-(1-methyl-6-oxo-1,6-dihydropyridazin-3-yl)piperidin-4-yl 4-cyclobutylpiperazine-1-carboxylate]
